target: T1, IDO1 (Homo sapiens, UniProt P14902); assay: Cell-based (HeLa) assay for measurement of IDO1 inhibition (kynurenine levels in supernatant after IFNγ induction); conditions: HeLa cells, IFNγ-induced IDO1, kynurenine in supernatant after 48 hour incubation; geometric mean of a minimum of four determinations
T1 construct: HeLa cells were treated with a test compound in the presence of IFNγ, which induces IDO1 expression; host or cells: H1-HeLa cells, IDO1 induced with IFNγ
Procedure, shortened: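 IDO1 activity is read as kynurenine released into the medium, detected with Ehrlich's reagent (p-dimethylaminobenzaldehyde) at 480 nm after TCA treatment. HeLa cells were exposed 48 h to compounds in 0.5% DMSO alongside IFNγ induction. Values normalized to no-IFNγ and IFNγ controls; four-parameter EC50 given as geometric mean of ≥4 determinations.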

T1 sequence (P14902 whole entry): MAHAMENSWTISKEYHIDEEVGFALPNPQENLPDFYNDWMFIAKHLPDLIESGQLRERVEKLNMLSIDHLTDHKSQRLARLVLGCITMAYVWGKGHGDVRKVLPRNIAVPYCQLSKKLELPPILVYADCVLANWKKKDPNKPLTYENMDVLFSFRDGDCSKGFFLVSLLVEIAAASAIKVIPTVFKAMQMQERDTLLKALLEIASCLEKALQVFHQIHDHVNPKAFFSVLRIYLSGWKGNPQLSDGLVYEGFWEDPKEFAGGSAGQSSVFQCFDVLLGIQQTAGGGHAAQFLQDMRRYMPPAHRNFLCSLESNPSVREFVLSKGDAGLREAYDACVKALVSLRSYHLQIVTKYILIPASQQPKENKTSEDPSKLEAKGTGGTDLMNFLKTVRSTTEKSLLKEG

O/N=C(\Nc1ccc(F)c(Cl)c1)c1ccnc2nc(NCCC3CCOCC3)[nH]c12 [Example 224, N-(3-chloro-4-fluorophenyl)-N′-hydroxy-2-((2-(tetrahydro-2H-pyran-4-yl)ethyl)amino)-1H-imidazo[4,5-b]pyridine-7-carboximidamide] and O=C1CCCN1CCNc1nc2nccc(/C(=N/O)Nc3ccc(F)c(Cl)c3)c2[nH]1 [Example 235, N-(3-chloro-4-fluorophenyl)-N′-hydroxy-2-((2-(2-oxopyrrolidin-1-yl)ethyl)amino)-1H-imidazo[4,5-b]pyridine-7-carboximidamide] are within 1.5-fold of each other in EC50: 3.74 µM for the first, 4.82 µM for the second.

O/N=C(\Nc1ccc(F)c(Cl)c1)c1ccnc2nc(CCNC3CC3)[nH]c12 [Example 207, N-(3-chloro-4-fluorophenyl)-2-(2-(cyclopropylamino)ethyl)-N′-hydroxy-3H-imidazo[4,5-b]pyridine-7-carboximidamide] and CCNCc1nc2nccc(/C(=N/O)Nc3ccc(F)c(Cl)c3)c2[nH]1 [Example 114, N-(3-Chloro-4-fluorophenyl)-2-((ethylamino)methyl)-N′-hydroxy-1H-imidazo[4,5-b]pyridine-7-carboximidamide] are within 1.5-fold of each other in EC50: 1.26 µM for the first, 0.927 µM for the second.

CC(C)CNCc1nc2nccc(/C(=N/O)Nc3ccc(F)c(Cl)c3)c2[nH]1 [Example 196, N-(3-Chloro-4-fluorophenyl)-N′-hydroxy-2-((isobutylamino)methyl)-1H-imidazo[4,5-b]pyridine-7-carboximidamide] and COCCCN(C)Cc1nc2nccc(/C(=N/O)Nc3ccc(F)c(Cl)c3)c2[nH]1 [Example 122, N-(3-Chloro-4-fluorophenyl)-N′-hydroxy-2-(((3-methoxypropyl)(methyl)amino)methyl)-1H-imidazo[4,5-b]pyridine-7-carboximidamide] are within 1.5-fold of each other in EC50: 1.33 µM for the first, 1.88 µM for the second.

Going from O/N=C(\Nc1ccc(F)c(Cl)c1)c1ccnc2nc(CCN3CCCCCC3)[nH]c12 [Example 258, 2-(2-(azepan-1-yl)ethyl)-N-(3-chloro-4-fluorophenyl)-N′-hydroxy-1H-imidazo[4,5-b]pyridine-7-carboximidamide] to O/N=C(\Nc1ccc(F)c(Cl)c1)c1ccnc2nc(CCN3CCC(O)CC3)[nH]c12 [Example 262, N-(3-chloro-4-fluorophenyl)-N′-hydroxy-2-(2-(4-hydroxypiperidin-1-yl)ethyl)-1H-imidazo[4,5-b]pyridine-7-carboximidamide], the EC50 rises from 0.844 µM to 3.24 µM (3.8-fold).

O/N=C(\Nc1ccc(F)c(Cl)c1)c1ccnc2nc(-c3ccc[nH]3)[nH]c12 [Example 148, N-(3-Chloro-4-fluorophenyl)-N′-hydroxy-2-(1H-pyrrol-2-yl)-1H-imidazo[4,5-b]pyridine-7-carboximidamide] and CS(=O)(=O)CCNc1nc2c(F)ccc(/C(=N/O)Nc3ccc(F)c(Cl)c3)c2[nH]1 [Example 33, N-(3-Chloro-4-fluorophenyl)-4-fluoro-N′-hydroxy-2-((2-(methylsulfonyl)ethyl)amino)-1H-benzo[d]imidazole-7-carboximidamide] are within 1.5-fold of each other in EC50: 2.23 µM for the first, 1.83 µM for the second.

First: O/N=C(\Nc1cc(Br)c(F)cc1F)c1ccnc2nc[nH]c12 [Example 61, N-(5-Bromo-2,4-difluorophenyl)-N′-hydroxy-1H-imidazo[4,5-b]pyridine-7-carboximidamide]
Second: O/N=C(\Nc1cc(F)cc(C(F)(F)F)c1)c1ccnc2nc[nH]c12 [Example 75, N-(3-Fluoro-5-(trifluoromethyl)phenyl)-N′-hydroxy-1H-imidazo[4,5-b]pyridine-7-carboximidamide]
The EC50 of the first is 5.7-fold lower: 0.371 µM for the first, 2.11 µM for the second. The first is the more potent here.

CCN(CC)CCc1nc2c(F)c(F)cc(/C(=N/O)Nc3ccc(F)c(Cl)c3)c2[nH]1 [Example 58, N-(3-Chloro-4-fluorophenyl)-2-(2-(diethylamino)ethyl)-4,5-difluoro-N′-hydroxy-1H-benzo[d]imidazole-7-carboximidamide] gave an EC50 of 0.786 µM.

same assay, conditions: HeLa cells, IFNγ-induced IDO1, kynurenine in supernatant, 48 hour incubation; geometric mean of a minimum of four determinations

First: ON=C(Nc1ccc(F)c(Cl)c1)c1cc(F)c(F)c2nc(Cl)[nH]c12 [Example 346, 2-chloro-N-(3-chloro-4-fluorophenyl)-4,5-difluoro-N′-hydroxy-1H-benzo[d]imidazole-7-carboximidamide]
Second: CC(CNc1nc2c(F)c(F)cc(/C(=N/O)Nc3ccc(F)c(Cl)c3)c2[nH]1)CN(C)C (stereo not shown) [Example 352, N-(3-chloro-4-fluorophenyl)-2-((3-(dimethylamino)-2-methylpropyl)amino)-4,5-difluoro-N′-hydroxy-1H-benzo[d]imidazole-7-carboximidamide]
The EC50 of the first is 19-fold higher: 8.47 µM for the first, 0.437 µM for the second. The second is the more potent here.

Going from CN(CCNc1nc2c(F)c(F)cc(/C(=N/O)Nc3ccc(F)c(Cl)c3)c2[nH]1)CC1CCOCC1 [Example 394, N-(3-chloro-4-fluorophenyl)-4,5-difluoro-N′-hydroxy-2-((2-(methyl((tetrahydro-2H-pyran-4-yl)methyl)amino)ethyl)amino)-1H-benzo[d]imidazole-7-carboximidamide] to CN1CCOCC1CNc1nc2c(F)c(F)cc(/C(=N/O)Nc3ccc(F)c(Cl)c3)c2[nH]1 (stereo not shown) [Example 429, N-(3-chloro-4-fluorophenyl)-4,5-difluoro-N′-hydroxy-2-(((4-methylmorpholin-3-yl)methyl)amino)-1H-benzo[d]imidazole-7-carboximidamide], the EC50 rises from 0.332 µM to 1.35 µM (4.1-fold). The first is the more potent here.

CN(CCc1nc2nccc(/C(=N/O)Nc3ccc(F)c(Cl)c3)c2[nH]1)C1CCCCC1 [Example 393, N-(3-chloro-4-fluorophenyl)-2-(2-(cyclohexyl(methyl)amino)ethyl)-N′-hydroxy-1H-imidazo[4,5-b]pyridine-7-carboximidamide] and CN(CCc1nc2nccc(/C(=N/O)Nc3ccc(F)c(Cl)c3)c2[nH]1)CC1CCCCC1 [Example 391, N-(3-chloro-4-fluorophenyl)-2-(2-((cyclohexylmethyl)(methyl)amino)ethyl)-N′-hydroxy-1H-imidazo[4,5-b]pyridine-7-carboximidamide] are within 1.5-fold of each other in EC50: 1.79 µM for the first, 1.48 µM for the second.

Compared with CCNC(=O)NCCNc1nc2c(F)c(F)cc(/C(=N/O)Nc3ccc(F)c(Cl)c3)c2[nH]1 [Example 341, N-(3-chloro-4-fluorophenyl)-2-((2-(3-ethylureido)ethyl)amino)-4,5-difluoro-N′-hydroxy-1H-benzo[d]imidazole-7-carboximidamide], Cn1ccnc1CCNc1nc2c(F)c(F)cc(/C(=N/O)Nc3ccc(F)c(Cl)c3)c2[nH]1 [Example 344] is lower in EC50: > 10 µM for the first, 3.06 µM for the second.

First: CN1CCN(CCNc2nc3c(F)c(F)cc(/C(=N/O)Nc4ccc(F)c(Cl)c4)c3[nH]2)CC1=O [Example 449, N-(3-chloro-4-fluorophenyl)-4,5-difluoro-N′-hydroxy-2-((2-(4-methyl-3-oxopiperazin-1-yl)ethyl)amino)-1H-benzo[d]imidazole-7-carboximidamide]
Second: CC1CCN(C)C(CNc2nc3c(F)c(F)cc(/C(=N/O)Nc4ccc(F)c(Cl)c4)c3[nH]2)C1 (stereo not shown) [Example 466, N-(3-chloro-4-fluorophenyl)-2-(((1,4-dimethylpiperidin-2-yl)methyl)amino)-4,5-difluoro-N′-hydroxy-1H-benzo[d]imidazole-7-carboximidamide]
The EC50 of the first is 9.1-fold higher: 6.25 µM for the first, 0.685 µM for the second. The second is the more potent here.

First: O/N=C(\Nc1ccc(F)c(Cl)c1)c1ccc(F)c2nc(NCCN3CCCC3)[nH]c12 [Example 376, N-(3-chloro-4-fluorophenyl)-4-fluoro-N′-hydroxy-2-((2-(pyrrolidin-1-yl)ethyl)amino)-1H-benzo[d]imidazole-7-carboximidamide]
Second: O/N=C(\Nc1ccc(F)c(Cl)c1)c1ccc(F)c2nc(NCCN3CCOCC3)[nH]c12 [Example 368, N-(3-chloro-4-fluorophenyl)-4-fluoro-N′-hydroxy-2-((2-morpholinoethyl)amino)-1H-benzo[d]imidazole-7-carboximidamide]
The EC50 of the first is 3.2-fold lower: 1.26 µM for the first, 4 µM for the second.

Going from CN(C)CCNc1nc2cc(F)cc(/C(=N/O)Nc3ccc(F)c(Cl)c3)c2[nH]1 [Example 379, N-(3-chloro-4-fluorophenyl)-2-((2-(dimethylamino)ethyl)amino)-5-fluoro-N′-hydroxy-1H-benzo[d]imidazole-7-carboximidamide] to CN(C)C1(CNc2nc3c(F)c(F)cc(/C(=N/O)Nc4ccc(F)c(Cl)c4)c3[nH]2)CCCCC1 [Example 450, N-(3-chloro-4-fluorophenyl)-2-(((1-(dimethylamino)cyclohexyl)methyl)amino)-4,5-difluoro-N′-hydroxy-1H-benzo[d]imidazole-7-carboximidamide], the EC50 rises from 0.435 µM to 1.59 µM (3.7-fold).

Compared with COCCN1CCCC(Nc2nc3c(F)c(F)cc(/C(=N/O)Nc4ccc(F)c(Cl)c4)c3[nH]2)C1 (stereo not shown) [Example 453, N-(3-chloro-4-fluorophenyl)-4,5-difluoro-N′-hydroxy-2-((1-(2-methoxyethyl)piperidin-3-yl)amino)-1H-benzo[d]imidazole-7-carboximidamide], CN1CCCCC(Nc2nc3c(F)c(F)cc(/C(=N/O)Nc4ccc(F)c(Cl)c4)c3[nH]2)C1 (stereo not shown) [Example 451, N-(3-chloro-4-fluorophenyl)-4,5-difluoro-N′-hydroxy-2-((1-methylazepan-3-yl)amino)-1H-benzo[d]imidazole-7-carboximidamide] is 3.2-fold lower in EC50: 0.651 µM for the first, 0.205 µM for the second. The second is the more potent here.

Compared with Nc1ccccc1CNc1nc2c(F)c(F)cc(/C(=N/O)Nc3ccc(F)c(Cl)c3)c2[nH]1 [Example 347, 2-((2-aminobenzyl)amino)-N-(3-chloro-4-fluorophenyl)-4,5-difluoro-N′-hydroxy-1H-benzo[d]imidazole-7-carboximidamide], OCCN(CCNc1nc2nccc(/C(=N/O)Nc3ccc(F)c(Cl)c3)c2[nH]1)C1CC1 [Example 407, N-(3-chloro-4-fluorophenyl)-2-((2-(cyclopropyl(2-hydroxyethyl)amino)ethyl)amino)-N′-hydroxy-1H-imidazo[4,5-b]pyridine-7-carboximidamide] is 1.5-fold lower in EC50: 3.27 µM for the first, 2.12 µM for the second. The second is the more potent here.

From patent US9951065B2 (Gilead Sciences, Inc., priority 2015, dated 2018)
